{
  "source": "ChEMBL document CHEMBL1136287",
  "about": "“Synthesis and testing of novel phenyl substituted side-chain analogues of classical cannabinoids” (Bioorg Med Chem Lett, 2003)",
  "key": {"[1]": {"molecular_target": "T1, Cannabinoid receptor 1 (Homo sapiens, UniProt P21554)", "T1 sequence (P21554 whole entry)": "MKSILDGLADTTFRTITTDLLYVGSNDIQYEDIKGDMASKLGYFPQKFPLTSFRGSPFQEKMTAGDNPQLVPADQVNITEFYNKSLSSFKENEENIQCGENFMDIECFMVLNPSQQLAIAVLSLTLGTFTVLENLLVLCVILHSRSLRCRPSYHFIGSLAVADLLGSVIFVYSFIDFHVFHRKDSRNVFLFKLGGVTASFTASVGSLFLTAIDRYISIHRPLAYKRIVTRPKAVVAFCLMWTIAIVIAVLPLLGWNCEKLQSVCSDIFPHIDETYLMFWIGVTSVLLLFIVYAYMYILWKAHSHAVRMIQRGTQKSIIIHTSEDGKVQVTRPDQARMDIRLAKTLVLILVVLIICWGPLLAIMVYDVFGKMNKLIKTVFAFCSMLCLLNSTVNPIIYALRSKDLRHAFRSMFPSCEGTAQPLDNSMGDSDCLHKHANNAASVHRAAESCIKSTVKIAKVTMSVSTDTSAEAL", "test": "Binding affinity towards Cannabinoid receptor 1"}, "[2]": {"molecular_target": "T2, Cannabinoid receptor 2 (Homo sapiens, UniProt P34972)", "T2 sequence (P34972 whole entry)": "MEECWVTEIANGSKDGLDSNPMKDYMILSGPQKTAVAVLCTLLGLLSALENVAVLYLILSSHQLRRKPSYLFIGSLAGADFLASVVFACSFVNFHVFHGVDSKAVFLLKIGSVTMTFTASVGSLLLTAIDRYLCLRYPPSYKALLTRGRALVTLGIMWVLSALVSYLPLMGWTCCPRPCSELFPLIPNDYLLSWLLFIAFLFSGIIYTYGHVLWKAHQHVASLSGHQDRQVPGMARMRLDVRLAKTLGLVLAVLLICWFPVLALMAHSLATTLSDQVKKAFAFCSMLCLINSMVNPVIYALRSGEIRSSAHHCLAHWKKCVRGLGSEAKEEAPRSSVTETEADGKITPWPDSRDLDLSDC", "test": "Binding affinity towards Cannabinoid receptor 2"}, "[3]": {"molecular_target": "T2, Cannabinoid receptor 2", "test": "Binding affinity towards Cannabinoid receptor 2 using CP-55940 as radioligand in HEK293 EBNA cells", "type": "cell-based"}, "[4]": {"molecular_target": "T1, Cannabinoid receptor 1", "test": "Binding affinity towards Cannabinoid receptor 1 using CP-55940 as radioligand in HEK293 EBNA cells", "type": "cell-based"}},
  "note": "pKi: −log10 of the molar value.",
  "data": [
    {"compound": "CC1=CC[C@@H]2[C@@H](C1)c1c(O)cc(C3(C4CCCCC4)SCCS3)cc1OC2(C)C", "values": [
      {"measurement": "pKi", "setting": "[1]", "result": 8.73},
      {"measurement": "pKi", "setting": "[2]", "result": 8.98}
    ]},
    {"compound": "CC1=CC[C@@H]2[C@@H](C1)c1c(O)cc(C3(c4ccccc4)SCCS3)cc1OC2(C)C", "values": [
      {"measurement": "pKi", "setting": "[3]", "result": 7.75},
      {"measurement": "pKi", "setting": "[4]", "result": 7.76}
    ]},
    {"compound": "CC1=CC[C@@H]2[C@@H](C1)c1c(O)cc(C(C)(C)c3ccccc3)cc1OC2(C)C", "values": [
      {"measurement": "pKi", "setting": "[3]", "result": 9.04},
      {"measurement": "pKi", "setting": "[4]", "result": 7.91}
    ]},
    {"compound": "CC1=CC[C@@H]2[C@@H](C1)c1c(O)cc(C(C)(C)C3CCCCC3)cc1OC2(C)C", "values": [
      {"measurement": "pKi", "setting": "[3]", "result": 9.19},
      {"measurement": "pKi", "setting": "[4]", "result": 9.24}
    ]},
    {"compound": "CC1=CC[C@@H]2[C@@H](C1)c1c(O)cc(Cc3ccccc3)cc1OC2(C)C", "values": [
      {"measurement": "pKi", "setting": "[3]", "result": 7.07},
      {"measurement": "pKi", "setting": "[4]", "result": 7.17}
    ]}
  ]
}
